Tests used:
[1] = system: T-lymphoma (MOLT-4, Jurkat, CCRF-CEM, Hut-78 & HuT-102) cells; experiment: In vitro cell proliferation assay in leukemic cell lines (MTT); type: cell-based
Protocol: Growth inhibition assays were carried out using 10% FBS supplemented media. Cells were seeded at a concentration of 5000-20,000 cells/well in a 96-well plate. Test compounds at a concentration range from 0.01 to 10000 nM were added after 24 h. Growth was assessed using the 3-[4,5-dimethylthiazol-2-yl]-2,5-diphenyltetrazolium bromide (MTT) dye reduction test at 0 h (prior to the addition of the test compound) and 72 h after the addition of test compound. Absorbance was read on a Fluostar Optima (BMG Labtech, Germany) at a wave length of 450 nm. Data were analysed using GraphPad Prism and percent inhibition due to the test compound compared to the control was calculated accordingly.

Pi3K γ [2] = target: T1, Pi3K γ (Homo sapiens, UniProt P48736); experiment: fMLP induced CD63 expression in basophils from human whole blood; type: cell-based; conditions: n=10, read-out: IC50 for fMLP (PI3K γ), CD63 positive basophils
Protocol: PI3K δ and γ signalling in basophils manifested by an alteration of anti-FcεR1 or fMLP induced CD63 expression is a useful pharmacodynamic marker determined using the Flow2CAST® kit (Buhlmann Laboratories, Switzerland). Briefly, it involves the following steps: • Mix the anti-coagulated blood sample by inverting the venipuncture tube several times; • Prepare fresh and pyrogen-free 3.5 ml polypropylene or polystyrene tubes suitable for Flow Cytometry measurements; • Add 49 μl of patient's whole blood to each tube; • Add 1 μl of 10% DMSO (background) or compound (10% DMSO) to the assigned tubes and mix gently. Incubate at room temperature for 15 minutes; • Pipet 50 μl of the Stimulation buffer (background) or anti-FcεRI Ab or or fMLP to each tube; • Add 100 μl of Stimulation Buffer to each tube; • Mix gently. Add 20 μl Staining Reagent (1:1 mix of FITC-CD63 and PE-CCR3) to each tube; • Mix gently, cover the tubes and incubate for 15 minutes at 37° C. in a water bath. […]
Percent CD63 positive cells within the gated basophil population were determined in different treatment groups and normalized to vehicle control.

pAKT [3] = experiment: pAKT inhibition in human primary CTCL cells (flow cytometry); type: cell-based; conditions: cytokine mix stimulated, read-out: EC50, reduction of AKT phosphorylation
Protocol: Flow cytometry analysis of pAKT inhibition: Purified malignant T cells were isolated from donors and cultured overnight in RPMI/1% BSA. Cells were incubated with the test compound for 1.5 hr with a cytokine mix added for the final 30 minutes. The composition of the cytokine mix was 20 ng/ml IL2+5 ng/ml IL7+10 ng/ml IL15+10% FBS. AKT phosphorylation was determined by flow cytometry.

[4] = system: primary cells derived from B-cell lymphomas; experiment: Anticancer activity in patient derived B-lymphoma cells (Annexin V/PI); type: cell-based; conditions: 4 μM, 48-h incubation
Protocol: Primary cells from lymphoid tumors were exposed to the test compound [Compound A1] to assess the induction of cell death. Cells were derived from diffuse large B-cell lymphoma (DLBCL), mantle cell lymphoma (MCL), splenic marginal zone lymphoma (SMZL), extranodal marginal zone lymphoma (EMZL), or chronic lymphocytic leukemia (CLL, no.=1). Cells were treated with desired concentrations of the compound and apoptosis (Annexin V/PI) was assessed by flow-cytometry after a 48-h incubation period.

pAKT [5] = experiment: Inhibition of AKT phosphorylation in B-lymphoma cell lines; type: cell-based; conditions: LY-1, LY-10, Daudi, JEKO, REC and MAVER cells; 48 hours
Protocol: LY-1, LY-10, Daudi, JEKO, REC and MAVER cells were incubated with desired concentrations of [compound A1] for 48 hours. Cells were lysed and pAKT was determined by Western Blotting. Bands were quantified using ImageJ and normalized to actin.

TNF-α = experiment: Lipopolysaccharide induced TNF-α production; type: in vivo, rat
Protocol: Fasted female wistar rats were randomized into different groups depending on their body weights. Test compound (Compound A1) was prepared as a suspension in a vehicle consisting of 0.5% methylcellulose. The compound or vehicle was administered by oral gavage in a volume of 10 mL/kg. LPS solution was administered intraperitoneally one hour after compound administration at a dose of 0.3 mg/kg. Blood was collected in serum separator tubes via cardiac puncture ninety minutes after LPS injection. Serum was separated and stored at −20° C. and will be analysed for TNFα by ELISA.

Pi3K γ [6] = target: T1, Pi3K γ; experiment: Fluorescent (HTRF) determination of PI3 kinase enzyme activity, gamma isoform; type: biochemical; set-up: purchased Millipore (assay kit); conditions: Table 1, HTRF; read-out: IC50 (nM) Pi3K γ
From the text: Phosphoinositide 3 kinases (PI3K) belong to a class of lipid kinases that play a critical role in the regulation of several key cellular processes. The PI3K are capable of phosphorylating the 3-hydroxy position of phosphoinositols thereby generating second messengers involved in downstream signalling events. The homogenous time resolved fluorescence (HTRF) assay allows detection of 3,4,5-triphosphate (PIP3) formed as a result of phosphorylation of phosphotidylinositol 4,5-biphosphate (PIP2) by PI3K isoforms such as α, β, γ or δ.
PI3K isoform activity for α, β, γ or δ was determined using a PI3K human HTRF™ Assay Kit (Millipore, Billerica, Mass.) with modifications. All incubations were carried out at room temperature. Briefly, 0.5 μl of 40× inhibitor (in 100% DMSO) or 100% DMSO were added to each well of a 384-well white plate (Greiner Bio-One, Monroe, N.C.) containing 14.5 μl 1× reaction buffer /PIP2 (10 mM MgCl2, 5 mM DTT, 1.38 μM PIP2) mix with or without enzyme, followed by 5 μl/well of 400 μM ATP and incubated for an additional 30 minutes. Reaction was terminated by adding 5 μl/well stop solution (Millipore, Billerica, Mass.). […] HRTF ratio was measured on a microplate reader (BMG Labtech., Germany) at an excitation wavelength of 337 nm and emission wavelengths of 665 and 615 nm with an integration time of 400 msec counting delay of 50 msec.

T1 sequence (P48736 whole entry): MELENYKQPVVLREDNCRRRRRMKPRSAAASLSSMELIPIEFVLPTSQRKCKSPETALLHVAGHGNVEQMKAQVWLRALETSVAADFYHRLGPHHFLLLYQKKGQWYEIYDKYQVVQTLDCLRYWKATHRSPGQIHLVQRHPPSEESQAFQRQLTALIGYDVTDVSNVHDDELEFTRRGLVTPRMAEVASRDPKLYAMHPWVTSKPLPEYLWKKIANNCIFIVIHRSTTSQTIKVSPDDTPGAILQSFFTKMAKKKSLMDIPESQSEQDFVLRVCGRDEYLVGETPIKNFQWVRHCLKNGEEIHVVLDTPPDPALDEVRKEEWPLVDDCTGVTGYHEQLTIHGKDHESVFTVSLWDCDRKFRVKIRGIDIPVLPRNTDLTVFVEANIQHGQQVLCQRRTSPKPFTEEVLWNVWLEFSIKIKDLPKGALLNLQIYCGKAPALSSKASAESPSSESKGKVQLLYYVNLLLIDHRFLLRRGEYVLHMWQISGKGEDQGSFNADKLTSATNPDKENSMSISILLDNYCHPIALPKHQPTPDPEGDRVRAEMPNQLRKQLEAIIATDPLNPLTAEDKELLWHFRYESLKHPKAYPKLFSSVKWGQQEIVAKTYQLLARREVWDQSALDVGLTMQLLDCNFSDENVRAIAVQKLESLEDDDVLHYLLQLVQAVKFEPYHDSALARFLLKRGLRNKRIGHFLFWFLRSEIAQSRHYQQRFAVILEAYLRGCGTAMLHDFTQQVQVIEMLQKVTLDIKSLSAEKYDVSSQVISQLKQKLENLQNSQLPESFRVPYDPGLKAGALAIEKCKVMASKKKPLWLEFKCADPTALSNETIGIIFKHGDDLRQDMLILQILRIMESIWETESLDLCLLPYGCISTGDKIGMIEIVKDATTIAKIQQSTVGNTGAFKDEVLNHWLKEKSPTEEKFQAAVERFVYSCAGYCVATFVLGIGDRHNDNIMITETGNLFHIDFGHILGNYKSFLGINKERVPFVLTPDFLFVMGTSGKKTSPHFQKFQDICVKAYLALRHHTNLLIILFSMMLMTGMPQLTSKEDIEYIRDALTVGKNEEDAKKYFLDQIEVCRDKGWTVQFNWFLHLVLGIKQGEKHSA

GI50 ([1]; MOLT-4, Jurkat, CCRF-CEM, Hut-78 & HuT-102, 72 h, MTT, read-out: GI50, reduction in T-lymphoma cell viability): 1000 to 5000 nM | IC50 (Pi3K γ [2]): < 40 nM | EC50 (pAKT [3]): 40 to 300 nM | EC50 (pAKT [5]): 20 to 200 nM | IC50 (Pi3K γ [6]): 24.1 nM
SMILES: CC[C@H](Nc1ncnc2[nH]cnc12)c1oc2ccccc2c(=O)c1-c1cccc(F)c1 [Compound A1, (S)-2-(1-(9H-purin-6-ylamino)propyl)-3-(3-fluorophenyl)-4H-chromen-4-one]
apparent cytotoxicity ([1]; 72-h incubation period, up to 10 μM): did not display any apparent cytotoxicity | cell death (apoptosis, Annexin V/PI) [4]: increase in cell death | percent inhibition of plasma TNFα (TNF-α; 1 mg/kg po): 5% | percent inhibition of plasma TNFα (TNF-α; 3 mg/kg po): 15% | percent inhibition of plasma TNFα (TNF-α; 10 mg/kg po): 40%
